# Data reported in publication PMC9499386, “New Inhibitors of the Human p300/CBP Acetyltransferase Are Selectively Active against the Arabidopsis HAC Proteins” (International Journal of Molecular Sciences, 2022).
# Tests used:
# [1] = biological target: T1, HAC1 catalytic domain (recombinant HAC1) (Arabidopsis thaliana, UniProt Q9C5X9); assay: colorimetric antibody-based HAT activity assay (EpiGentek P-4003), […] nm; assay type: biochemical; conditions: kit HAT substrate as acetyl acceptor, 45 min at 37 °C; partially purified enzyme
# T1 construct: HAT catalytic domain aa 1081-1517 (nt 3241-4551 of CDS), C-terminal 6xHis tag, pET28a, E. coli BL21(DE3), partially purified, 52 kDa
# T1 sequence (Q9C5X9 1081-1517): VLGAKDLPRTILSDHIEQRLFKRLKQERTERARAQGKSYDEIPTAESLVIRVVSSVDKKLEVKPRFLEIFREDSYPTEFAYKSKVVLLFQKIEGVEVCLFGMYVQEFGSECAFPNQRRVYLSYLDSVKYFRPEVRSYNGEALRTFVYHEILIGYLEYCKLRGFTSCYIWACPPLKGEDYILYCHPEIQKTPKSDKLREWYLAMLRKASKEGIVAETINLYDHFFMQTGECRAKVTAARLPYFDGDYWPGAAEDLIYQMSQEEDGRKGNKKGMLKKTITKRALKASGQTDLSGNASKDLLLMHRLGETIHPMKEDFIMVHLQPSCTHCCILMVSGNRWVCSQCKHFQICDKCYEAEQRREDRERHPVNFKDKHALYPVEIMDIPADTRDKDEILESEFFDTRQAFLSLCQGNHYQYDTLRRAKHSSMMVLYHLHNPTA
# [2] = biological target: T1, HAC1 catalytic domain (recombinant HAC1); assay: as above; assay type: biochemical
SMILES,"colorimetric antibody-based HAT activity assay (EpiGentek P-4003), 450 nm [1]",inhibition at 6 µM [2] [%]
CC(=O)SCCNC(=O)CCNC(=O)[C@H](O)C(C)(C)COP(=O)(O)OP(=O)(O)OC[C@H]1O[C@@H](n2cnc3c(N)ncnc32)[C@H](O)[C@@H]1OP(=O)(O)O [acetyl-CoA],strip wells were incubated with acetyl-CoA and partially purified HAC1 catalytic domain,–
"O=C1C(Cc2ccc(O)c(Br)c2)CCCC1Cc1ccc(O)c(Br)c1 (centres unmarked) [2c, 2,6-Bis(3-bromo-4-hydroxybenzyl)cyclohexanone]",–,83
